Consider four compounds from ChEMBL document CHEMBL1201862, “PubChem BioAssay data set” (2004).

One experiment concerns Streptococcus. The experiment can be described thus: GAS UMAA2166 growth inhibition – luminescence, BacTiterGlo, counter-screen for streptokinase expression inhibitor project, dose response (AID 1915).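 Also: potency for reduction of bacterial viability or growth.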 The class given is functional, organism-based. In general terms: The purpose of a counterscreen is to sort out artefacts and off-target activity.
A further experiment deals with T1, Protein RecA (Mycobacterium tuberculosis, UniProt P9WHJ3).
T1 sequence (P9WHJ3 whole entry): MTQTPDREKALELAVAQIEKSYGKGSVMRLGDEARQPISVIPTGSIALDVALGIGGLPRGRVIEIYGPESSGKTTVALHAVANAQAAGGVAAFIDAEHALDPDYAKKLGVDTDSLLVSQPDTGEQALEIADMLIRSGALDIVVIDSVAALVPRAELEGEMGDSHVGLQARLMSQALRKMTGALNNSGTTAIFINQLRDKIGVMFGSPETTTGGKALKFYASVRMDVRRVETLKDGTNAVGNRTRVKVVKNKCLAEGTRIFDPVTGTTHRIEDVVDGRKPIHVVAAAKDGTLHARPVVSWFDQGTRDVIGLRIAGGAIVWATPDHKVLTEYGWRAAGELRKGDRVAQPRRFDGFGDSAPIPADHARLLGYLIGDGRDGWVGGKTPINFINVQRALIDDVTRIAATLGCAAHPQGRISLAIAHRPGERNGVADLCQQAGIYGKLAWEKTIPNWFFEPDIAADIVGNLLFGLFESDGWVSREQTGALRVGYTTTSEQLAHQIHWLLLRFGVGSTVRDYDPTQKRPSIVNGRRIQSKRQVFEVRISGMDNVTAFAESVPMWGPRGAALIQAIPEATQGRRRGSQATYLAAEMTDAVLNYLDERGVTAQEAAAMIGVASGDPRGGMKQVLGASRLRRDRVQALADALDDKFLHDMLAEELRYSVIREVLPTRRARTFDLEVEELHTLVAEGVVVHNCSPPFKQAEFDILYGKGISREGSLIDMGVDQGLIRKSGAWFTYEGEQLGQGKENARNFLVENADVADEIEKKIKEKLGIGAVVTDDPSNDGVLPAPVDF
The experiment can be described thus: Fluorescence Cell-Free Homogeneous Dose Retest to Identify Inhibitors of RecA-Intein Splicing Activity. [Related pubchem assays (depositor defined):AID2097, AID2223, AID489010, AID492950]. The class given is functional.

The target of experiment [1] is T2, Apoptotic protease-activating factor 1 (Homo sapiens, UniProt O14727).
T2 sequence (O14727 whole entry): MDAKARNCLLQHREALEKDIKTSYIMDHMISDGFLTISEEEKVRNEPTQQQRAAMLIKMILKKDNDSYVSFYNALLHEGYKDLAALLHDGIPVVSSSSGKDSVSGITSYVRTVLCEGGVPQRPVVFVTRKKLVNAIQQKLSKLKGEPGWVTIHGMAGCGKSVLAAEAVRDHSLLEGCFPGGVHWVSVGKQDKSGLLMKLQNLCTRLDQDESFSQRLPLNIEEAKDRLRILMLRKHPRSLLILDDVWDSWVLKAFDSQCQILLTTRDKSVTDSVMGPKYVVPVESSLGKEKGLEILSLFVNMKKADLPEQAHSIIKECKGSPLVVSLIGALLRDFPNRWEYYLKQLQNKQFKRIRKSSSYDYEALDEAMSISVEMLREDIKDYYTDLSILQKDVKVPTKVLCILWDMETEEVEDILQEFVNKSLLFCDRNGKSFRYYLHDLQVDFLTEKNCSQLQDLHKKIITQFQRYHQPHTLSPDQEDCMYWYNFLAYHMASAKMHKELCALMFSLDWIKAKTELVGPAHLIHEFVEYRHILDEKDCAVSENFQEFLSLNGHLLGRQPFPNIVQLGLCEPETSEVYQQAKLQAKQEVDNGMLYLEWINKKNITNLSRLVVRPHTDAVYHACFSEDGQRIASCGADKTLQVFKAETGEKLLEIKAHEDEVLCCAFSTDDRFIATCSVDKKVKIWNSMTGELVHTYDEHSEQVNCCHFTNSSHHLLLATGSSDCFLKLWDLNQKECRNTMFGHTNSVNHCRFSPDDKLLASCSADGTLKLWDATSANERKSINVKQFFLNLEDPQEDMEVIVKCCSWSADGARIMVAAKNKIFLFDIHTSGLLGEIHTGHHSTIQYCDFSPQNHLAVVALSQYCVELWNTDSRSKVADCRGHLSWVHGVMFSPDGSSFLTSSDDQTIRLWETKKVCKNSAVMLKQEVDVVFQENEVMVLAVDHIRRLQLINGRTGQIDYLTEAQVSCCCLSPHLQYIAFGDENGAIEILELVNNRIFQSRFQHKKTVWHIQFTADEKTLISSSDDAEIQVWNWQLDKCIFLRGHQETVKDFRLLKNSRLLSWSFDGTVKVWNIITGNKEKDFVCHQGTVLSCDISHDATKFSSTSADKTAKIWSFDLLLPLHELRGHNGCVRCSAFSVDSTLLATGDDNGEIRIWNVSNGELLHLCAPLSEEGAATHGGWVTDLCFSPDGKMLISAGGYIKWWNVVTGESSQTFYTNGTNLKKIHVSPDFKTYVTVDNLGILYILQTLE
Type of experiment: functional.

The nature of experiment [2]: NIH3T3 cell viability loss – ATP luminescence, mouse fibroblasts, counter-screen, dose response (AID 2010).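 Also: cells exposed to compound for about 90 hours before reading.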 The class given is functional, cell-based.
Experiment [3] has as its target DNA dC->dU-editing enzyme APOBEC-3A (Homo sapiens, UniProt P31941). Kind of experiment: A3A deaminase inhibition for selectivity – biochemical, dose response (AID 504722). Type of experiment: functional.
Experiment [4] has as its target T3, RNA-binding protein pos-1 (Caenorhabditis elegans, UniProt G5EF15).
T3 sequence (G5EF15 whole entry): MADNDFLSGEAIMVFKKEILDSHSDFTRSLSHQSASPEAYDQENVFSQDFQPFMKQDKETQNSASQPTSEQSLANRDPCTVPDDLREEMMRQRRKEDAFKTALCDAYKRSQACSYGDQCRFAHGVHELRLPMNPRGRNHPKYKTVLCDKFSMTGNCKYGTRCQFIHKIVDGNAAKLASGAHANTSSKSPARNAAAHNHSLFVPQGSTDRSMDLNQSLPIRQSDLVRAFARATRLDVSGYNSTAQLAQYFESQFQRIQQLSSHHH
The experiment can be described thus: disruptors of C. elegans POS-1 RNA interaction – biochemical, fluorescence polarization, dose response (AID 1964).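 Also: purified POS-1 fused to maltose binding protein made in E. coli; potency of compounds blocking POS-1 binding to fluorescent RNA.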

Experiment [5] addresses Induced myeloid leukemia cell differentiation protein Mcl-1 (Homo sapiens, UniProt Q07820). The class given is functional.
Experiment [6] deals with G-protein coupled receptor 55 (Homo sapiens, UniProt Q9Y2T6). Kind of experiment: inhibition of LPI-stimulated GPR55 beta-arrestin translocation – imaging, U2OS, beta-arrestin-GFP, LPI agonist, primary screen (AID 2013).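 Also: antagonist potency measured as reduced agonist-driven arrestin aggregation.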 Type of experiment: functional.
Experiment [7] concerns the target DNA dC->dU-editing enzyme APOBEC-3G (Homo sapiens, UniProt Q9HC16). The experiment can be described thus: Dose Response confirmation of small molecule APOBEC3G DNA Deaminase Inhibitors via a fluorescence-based single-stranded DNA deaminase assay. [Related pubchem assays (depositor defined):AID493012, AID493028]. Type of experiment: functional.
The nature of experiment [8]: Trypanosoma cruzi growth suppression in host cells – NIH3T3 host cells, beta-gal luminescence, confirmation (AID 2044).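 Also: intracellular parasites grown in NIH/3T3 mouse fibroblasts as host cells; luminescent beta-galactosidase reporter signal from transgenic T. cruzi replicating inside host cells; inhibitors lower the luminescence signal.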 Type of experiment: functional, cell-based.

Calls of active or inactive are those of the source.

G-protein coupled receptor 55, sequence (Q9Y2T6 whole entry): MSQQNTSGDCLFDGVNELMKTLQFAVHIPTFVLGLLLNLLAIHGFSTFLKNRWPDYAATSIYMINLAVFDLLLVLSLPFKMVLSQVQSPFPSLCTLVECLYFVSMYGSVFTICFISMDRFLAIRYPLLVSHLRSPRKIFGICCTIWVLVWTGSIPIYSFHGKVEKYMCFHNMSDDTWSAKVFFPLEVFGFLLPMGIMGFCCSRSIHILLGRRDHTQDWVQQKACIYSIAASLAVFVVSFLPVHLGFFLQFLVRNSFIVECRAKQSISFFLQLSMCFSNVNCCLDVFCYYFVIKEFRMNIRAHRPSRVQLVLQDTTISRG
DNA dC->dU-editing enzyme APOBEC-3A, sequence (P31941 whole entry): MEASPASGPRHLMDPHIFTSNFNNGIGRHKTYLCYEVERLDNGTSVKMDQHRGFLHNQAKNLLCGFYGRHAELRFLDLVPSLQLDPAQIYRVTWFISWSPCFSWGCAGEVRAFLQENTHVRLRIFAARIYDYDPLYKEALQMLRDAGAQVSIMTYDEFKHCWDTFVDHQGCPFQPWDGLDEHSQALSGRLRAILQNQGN
DNA dC->dU-editing enzyme APOBEC-3G, sequence (Q9HC16 whole entry): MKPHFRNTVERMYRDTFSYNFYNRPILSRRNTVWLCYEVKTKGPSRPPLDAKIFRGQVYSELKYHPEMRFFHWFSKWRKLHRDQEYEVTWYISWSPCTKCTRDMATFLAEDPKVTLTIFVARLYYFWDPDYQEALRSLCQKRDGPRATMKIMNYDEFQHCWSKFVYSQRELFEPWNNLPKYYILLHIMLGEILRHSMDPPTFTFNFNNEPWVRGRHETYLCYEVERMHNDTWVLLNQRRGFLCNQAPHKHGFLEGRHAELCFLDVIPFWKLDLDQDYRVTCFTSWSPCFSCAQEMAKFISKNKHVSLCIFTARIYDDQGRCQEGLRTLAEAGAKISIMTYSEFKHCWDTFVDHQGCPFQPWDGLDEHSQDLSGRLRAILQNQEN
Induced myeloid leukemia cell differentiation protein Mcl-1, sequence (Q07820 whole entry): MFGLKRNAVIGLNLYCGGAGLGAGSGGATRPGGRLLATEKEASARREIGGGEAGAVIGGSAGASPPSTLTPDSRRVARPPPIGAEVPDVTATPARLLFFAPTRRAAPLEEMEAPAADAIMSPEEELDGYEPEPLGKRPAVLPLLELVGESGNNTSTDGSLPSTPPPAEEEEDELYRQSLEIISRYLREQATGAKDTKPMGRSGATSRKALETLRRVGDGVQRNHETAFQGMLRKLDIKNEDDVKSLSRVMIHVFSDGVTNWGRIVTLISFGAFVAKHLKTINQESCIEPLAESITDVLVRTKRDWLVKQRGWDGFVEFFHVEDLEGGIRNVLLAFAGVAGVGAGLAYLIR

For orientation: EC50 means the concentration at which the effect is half-maximal. The term IC50 denotes the concentration needed to halve the response being measured. For `CC(=O)N(C1=C(Cl)C(=O)c2ccccc2C1=O)C1CCCCC1`, the EC50 is > 150 µM (not active) in the experiment on Streptococcus; 1.18 µM (active) on Protein RecA; 3.26 µM (active) in experiment [2]; 139 µM (active) in [4]; 1.83 µM (active) in [8]. Moreover, the IC50 in experiment [1] is 3.12 µM (active); in experiment [3] it was > 100 µM (inactive); in [5] it was 14.5 µM (active); in [6], 4.55 µM (active); in experiment [7] it was 7.68 µM (active).
`Oc1ccc(-c2cn3c(n2)SCC3)cc1O`: the IC50 in experiment [3] is > 100 µM (inactive); in experiment [5], 2.26 µM (active); in [7], 12.6 µM (active). In addition, the EC50 in [4] was 3.63 µM (active).
`Cc1ccc(NC2=C/C(=N\S(=O)(=O)c3cccs3)c3ccccc3C2=O)c(C)c1`: the EC50 in the experiment with Streptococcus was 3.08 µM (active); at Protein RecA it was 0.185 µM (active); in experiment [2] it was < 6 µM (inconclusive); in experiment [8], 0.719 µM (active). Further, the IC50 in experiment [1] was 0.411 µM (active); in [6], 1.87 µM (active).
Consider `COc1ccc(/C=N/NC(=O)c2nn(-c3ccccc3)c(=O)c3c(N)scc23)cc1`, for which the concentration for a half-maximal effect (EC50) on Protein RecA was 0.22 µM (active). Also, in experiment [1], the IC50 is 15.3 µM (active).
